The subject of data set [1] is A2780. The data set is described as follows: Antiproliferative activity against human A2780 cells incubated for 72 hrs in carbon-dioxide atmosphere measured by cell counting kit-8 method. Type of data set: functional, cell-based. The following applies: A2780, 72 h. On the technique in general: Formazan colour is commonly taken as a measure of viable cells.
The target in data set [2] is Nicotinamide phosphoribosyltransferase (Homo sapiens, UniProt P43490). In words: Inhibition of NAMPT (unknown origin) using NAM as substrate preincubated for 5 mins followed by substrate addition measured after 15 mins in presence of ATP by fluorescence based microplate reader analysis.
Sequence of Nicotinamide phosphoribosyltransferase (P43490 whole entry): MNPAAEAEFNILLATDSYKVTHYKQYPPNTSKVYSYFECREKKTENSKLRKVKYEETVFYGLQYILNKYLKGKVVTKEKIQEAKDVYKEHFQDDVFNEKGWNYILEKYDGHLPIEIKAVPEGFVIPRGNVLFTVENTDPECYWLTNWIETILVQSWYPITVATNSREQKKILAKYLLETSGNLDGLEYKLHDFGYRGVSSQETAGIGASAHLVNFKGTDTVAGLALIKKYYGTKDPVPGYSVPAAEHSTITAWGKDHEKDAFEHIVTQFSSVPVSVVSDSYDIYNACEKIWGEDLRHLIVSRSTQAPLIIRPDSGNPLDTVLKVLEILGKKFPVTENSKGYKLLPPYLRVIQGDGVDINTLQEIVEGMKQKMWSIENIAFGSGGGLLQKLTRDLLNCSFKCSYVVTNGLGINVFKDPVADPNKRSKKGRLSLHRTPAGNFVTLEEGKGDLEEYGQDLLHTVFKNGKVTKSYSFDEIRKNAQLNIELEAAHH
In data set [3] the target is T1, von Hippel-Lindau disease tumor suppressor/Nicotinamide phosphoribosyltransferase (Homo sapiens, UniProt P43490+P40337). The data set is described as follows: Protac activity at VHL/NAMPT in human A2780 cells assessed as degradation of NAMPT using NAM as substrate preincubated for 5 mins followed by substrate addition measured after 5 mins in presence of ATP by luminesence based microplate reader analysis. Format: cell-based.
Target sequence in this assay (P43490 whole entry): as above
Target sequence in this assay (P40337 whole entry): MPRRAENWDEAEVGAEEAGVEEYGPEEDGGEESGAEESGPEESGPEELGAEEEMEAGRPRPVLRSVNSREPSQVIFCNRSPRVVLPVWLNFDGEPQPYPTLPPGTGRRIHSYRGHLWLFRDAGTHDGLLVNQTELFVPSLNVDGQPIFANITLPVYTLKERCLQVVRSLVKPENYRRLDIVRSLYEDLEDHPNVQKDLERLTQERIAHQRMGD

Data set [4] addresses T1, von Hippel-Lindau disease tumor suppressor/Nicotinamide phosphoribosyltransferase. The data set is described as follows: Protac activity at VHL/NAMPT in human A2780 cells assessed as induction of NAMPT degradation measured at 0.2 to 500 nM after 24 hrs by Western blotting analysis. Type of data set: cell-based. The following applies: dose 0.2-500 nM. (In general: In western blotting, separated proteins are transferred to a membrane and probed.)
Target sequence in this assay (P40337 whole entry, looked up): as the sequence (P40337 whole entry) above
Target sequence in this assay (P43490 whole entry, looked up): as the sequence (P43490 whole entry) above

Data set [5] has the same target. In words: Protac activity at VHL/NAMPT in human A2780 cells assessed as reduction of NAMPT protein level at 10 nM measured after 24 hrs by Western blotting analysis. Type of data set: cell-based.
Target sequence in this assay (P40337 whole entry, looked up): as the sequence (P40337 whole entry) above
Target sequence in this assay (P43490 whole entry, looked up): as the sequence (P43490 whole entry) above
Data set [6] shares this target. In words: Protac activity at VHL/NAMPT in human A2780 cells assessed as induction of NAMPT degradation measured at 0.005 to 10 microM after 24 hrs by Western blotting analysis. Format: cell-based. The following applies: dose 0.005-10 µM.
Target sequence in this assay (P40337 whole entry, looked up): as the sequence (P40337 whole entry) above
Target sequence in this assay (P43490 whole entry, looked up): as the sequence (P43490 whole entry) above
For data set [7] the target is unchanged. In words: Protac activity at VHL/NAMPT in human A2780 cells assessed as induction of NAMPT degradation measured at 5 to 50 nM after 24 hrs by Western blotting analysis. Type of data set: cell-based. The conditions noted are these: dose 5-50 nM.
Target sequence in this assay (P40337 whole entry, looked up): as the sequence (P40337 whole entry) above
Target sequence in this assay (P43490 whole entry, looked up): as the sequence (P43490 whole entry) above
The target is the same in data set [8]. The data set is described as follows: Protac activity at VHL/NAMPT in human A2780 cells assessed as induction of NAMPT degradation measured at 500 to 5000 nM after 24 hrs by Western blotting analysis. Format: cell-based. The conditions noted are these: dose 500-5000 nM.
Target sequence in this assay (P40337 whole entry, looked up): as the sequence (P40337 whole entry) above
Target sequence in this assay (P43490 whole entry, looked up): as the sequence (P43490 whole entry) above
Data set [9] has the same target. In words: Protac activity at VHL/NAMPT in human A2780 cells assessed as reduction of NAMPT protein level at 0.1 to 100 nM measured after 24 hrs by Western blotting analysis. Format: cell-based. The following applies: dose 0.1-100 nM.
Target sequence in this assay (P40337 whole entry, looked up): as the sequence (P40337 whole entry) above
Target sequence in this assay (P43490 whole entry, looked up): as the sequence (P43490 whole entry) above
Data set [10] in a line: Retinal toxicity in nude mouse xenografted with human A2780 cells at 2 uM/Kg, IV once every 3 days upto 21 days by microscopic analysis. The following applies: 504 h, time 21 day.
Data set [11] has as its system A2780. In words: Antitumor activity against human A2780 cells xenografted in nude mouse assessed as tumor growth inhibition at 2 uM/Kg, IV once every 3 days upto 21 days relative to control. Format: functional. The following applies: time 21 day, at 2 µmol/kg.
Another data set relates to CT26. The data set is described as follows: Antiproliferative activity against mouse CT26 cells. Format: functional, cell-based.
Data set [12] can be described thus: Toxicity in nude mouse xenografted with human A2780 cells assessed as loss in body weight at 2 uM/Kg, IV once every 3 days upto 21 days. The following applies: 504 h, time 21 day. (In general: In xenograft studies the graft and the host belong to different species.)
Data set [13] is described as follows: Toxicity in nude mouse xenografted with human A2780 cells assessed as pathological damage in lung at 2 uM/Kg, IV once every 3 days upto 21 days by hematoxylin and eosin staining analysis. Type of data set: tissue-based. The following applies: 504 h, time 21 day.
Data set [14] in a line: Toxicity in nude mouse xenografted with human A2780 cells assessed as pathological damage in kidney at 2 uM/Kg, IV once every 3 days upto 21 days by hematoxylin and eosin staining analysis. Type of data set: tissue-based. The conditions noted are these: 504 h, time 21 day.

The structures appear in SMILES notation. Activity calls are given as the source filed them. The calls are words filed in the database; no cut-off is given here.

This is an account of results in ChEMBL document CHEMBL5316285 (J Med Chem, 2023).

By IC50 is commonly meant the point on the concentration scale where inhibition reaches its midpoint. In general, DC50 refers to the concentration giving 50% degradation. A word on the TGI: it is how far tumour growth fell short of that in controls.

For the compound `CC(=O)N[C@H](C(=O)N1C[C@H](O)C[C@H]1C(=O)N[C@@H](C)c1ccc(-c2scnc2C)cc1)C(C)(C)C`, the values for the IC50 (with A2780 [1]; in data set [2]) were over 100000 nM and over 2000 nM, respectively.
Regarding `Cc1ncsc1-c1ccc([C@H](C)NC(=O)[C@@H]2C[C@@H](O)CN2C(=O)[C@@H](NC(=O)COCCOCCOCCOCCN2CCN(S(=O)(=O)c3ccc(NC(=O)NCc4cccnc4)cc3)CC2)C(C)(C)C)cc1`, the IC50 was 173 nM in the data set on A2780 [1] and 130 nM in data set [2]. In addition, the DC50 in [3] was found to be 19 nM. Also, the Activity entry in [4] is “Dose-Dependent Effect”.
For `Cc1ncsc1-c1ccc([C@H](C)NC(=O)[C@@H]2C[C@@H](O)CN2C(=O)[C@@H](NC(=O)COCCOCCOCCN2CCN(S(=O)(=O)c3ccc(NC(=O)NCc4cccnc4)cc3)CC2)C(C)(C)C)cc1`, in that order: 56 nM, 130 nM, 93 nM and “Dose-Dependent Effect”.
`Cc1ncsc1-c1ccc([C@H](C)NC(=O)[C@@H]2C[C@@H](O)CN2C(=O)[C@@H](NC(=O)CCCCCCCCCCCN2CCN(S(=O)(=O)c3ccc(NC(=O)NCc4cccnc4)cc3)CC2)C(C)(C)C)cc1`: the IC50 in the data set on A2780 [1] was 30 nM; in [2], 310 nM. Besides, in data set [5], the result was Active. Also, in data set [3], the DC50 came out at 2.4 nM. The Activity result in data set [6] is “Dose-Dependent Effect”.
Consider `Cc1ncsc1-c1ccc([C@H](C)NC(=O)[C@@H]2C[C@@H](O)CN2C(=O)[C@@H](NC(=O)CCCCCCN2CCN(S(=O)(=O)c3ccc(NC(=O)NCc4cccnc4)cc3)CC2)C(C)(C)C)cc1`, for which the results for the IC50 (with A2780 [1]; in data set [2]) were 96 nM and 120 nM, respectively. In data set [3], the DC50 was over 10000 nM.
On to `Cc1ncsc1-c1ccc([C@H](C)NC(=O)[C@@H]2C[C@@H](O)CN2C(=O)[C@@H](NC(=O)COCCOCCOCCOCCOCCn2cc(CCN3CCN(S(=O)(=O)c4ccc(NC(=O)NCc5cccnc5)cc4)CC3)nn2)C(C)(C)C)cc1`, for which the IC50 came to 477 nM in the data set on A2780 [1] and 970 nM in data set [2]. The result in [7] was inactive. Also, the DC50 in data set [3] amounted to 50 nM. Also, in [8], the result was Active.
Consider `Cc1ncsc1-c1ccc([C@H](C)NC(=O)[C@@H]2C[C@@H](O)CN2C(=O)[C@@H](NC(=O)COCCOCCOCCn2cc(CCN3CCN(S(=O)(=O)c4ccc(NC(=O)NCc5cccnc5)cc4)CC3)nn2)C(C)(C)C)cc1`, for which the IC50 in the data set with A2780 [1] came to 487 nM; in data set [2], 94 nM. For the same compound, the result in data set [7] was inactive. Also, the DC50 in data set [3] came to 50 nM. Besides, the result in data set [8] was Active.
With `Cc1ncsc1-c1ccc([C@H](C)NC(=O)[C@@H]2C[C@@H](O)CN2C(=O)[C@@H](NC(=O)CCCCCCCCCCN2CCN(S(=O)(=O)c3ccc(NC(=O)NCc4cccnc4)cc3)CC2)C(C)(C)C)cc1`, the IC50 in the data set with A2780 [1] was 30 nM; in data set [2] it was 230 nM. In addition, the outcome in [5] was Active. In addition, the DC50 in data set [3] was under 4.6 nM. Further, in data set [6], the Activity entry is “Dose-Dependent Effect”.
As for `Cc1ncsc1-c1ccc([C@H](C)NC(=O)[C@@H]2C[C@@H](O)CN2C(=O)[C@@H](NC(=O)COCCOCCN2CCN(S(=O)(=O)c3ccc(NC(=O)NCc4cccnc4)cc3)CC2)C(C)(C)C)cc1`, the figures for the concentration for half-maximal inhibition (IC50) (in the data set on A2780 [1]; in [2]) were 1230 nM and 150 nM, respectively. In addition, in data set [3], the DC50 is over 100 nM. For the same compound, the outcome in data set [9] was inactive.
For `O=S(=O)(c1ccc(NC(=S)NCc2cccnc2)cc1)N1CCCCC1`, the results for the IC50 in the data set with A2780 [1] and in the data set on CT26 were 130 nM and 4600 nM, respectively. The Activity result in [10] was “Non-Toxic”. Besides, the TGI in the data set with A2780 [11] is reported as 49.8%.
As for `Cc1ncsc1-c1ccc([C@H](C)NC(=O)[C@@H]2C[C@@H](O)CN2C(=O)[C@@H](NC(=O)COCCOCCn2cc(CCN3CCN(S(=O)(=O)c4ccc(NC(=O)NCc5cccnc5)cc4)CC3)nn2)C(C)(C)C)cc1`, the IC50 is 737 nM in the data set with A2780 [1] and 190 nM in data set [2]. Moreover, the result in data set [7] was inactive. The DC50 in data set [3] stood at 50 nM. Moreover, the outcome in [8] was Active.
As to `Cc1ncsc1-c1ccc([C@H](C)NC(=O)[C@@H]2C[C@@H](O)CN2C(=O)[C@@H](NC(=O)COCCn2cc(CCN3CCN(S(=O)(=O)c4ccc(NC(=O)NCc5cccnc5)cc4)CC3)nn2)C(C)(C)C)cc1`, the IC50 in the data set on A2780 [1] stood at 433 nM; in data set [2], 120 nM. In [7], the result was inactive. Besides, the DC50 in [3] came to 50 nM. In addition, the outcome in data set [8] was Active.
As to `Cc1ncsc1-c1ccc([C@H](C)NC(=O)[C@H]2C[C@H](O)CN2C(=O)[C@@H](NC(=O)CCCCCCCCN2CCN(S(=O)(=O)c3ccc(NC(=O)NCc4cccnc4)cc3)CC2)C(C)(C)C)cc1`, the IC50 in the data set with A2780 [1] was 707 nM; in [2], 110 nM. In data set [3], the DC50 was over 10000 nM.
With `Cc1ncsc1-c1ccc([C@H](C)NC(=O)[C@@H]2C[C@@H](O)CN2C(=O)[C@@H](NC(=O)COCCOCCOCCOCCn2cc(CCN3CCN(S(=O)(=O)c4ccc(NC(=O)NCc5cccnc5)cc4)CC3)nn2)C(C)(C)C)cc1`, the IC50 in the data set with A2780 [1] worked out at 401 nM; in data set [2] it was 83 nM. Also, the outcome in data set [7] was inactive. Further, in data set [3], the DC50 was found to be 50 nM. For the same compound, the outcome in data set [8] was Active.
For `Cc1ncsc1-c1ccc([C@H](C)NC(=O)[C@@H]2C[C@@H](O)CN2C(=O)[C@@H](NC(=O)CCCCCCCN2CCN(S(=O)(=O)c3ccc(NC(=O)NCc4cccnc4)cc3)CC2)C(C)(C)C)cc1`, the IC50 in the data set with A2780 [1] amounted to 5.9 nM; in data set [2] it was 100 nM. For the same compound, in data set [3], the DC50 is over 100 nM.
Consider `Cc1ncsc1-c1ccc([C@H](C)NC(=O)[C@@H]2C[C@@H](O)CN2C(=O)[C@@H](NC(=O)COCCN2CCN(S(=O)(=O)c3ccc(NC(=O)NCc4cccnc4)cc3)CC2)C(C)(C)C)cc1`, for which the figures for the IC50 (in the data set with A2780 [1]; in data set [2]) were 5510 nM and 160 nM, respectively. Besides, the DC50 in data set [3] is over 100 nM. Besides, the result in data set [9] was inactive.
Turning to `O=C(/C=C/c1cccnc1)NCCCCC1CCN(C(=O)c2ccccc2)CC1` [DAPORINAD], the Activity entry is “Toxic” in data set [12], “Non-Toxic” in data set [10], “Toxic” in data set [13] and “Toxic” in data set [14]. The compound also showed an IC50 in the data set on A2780 [1] of 0.28 nM. The TGI in the data set on A2780 [11] was 62.9%.
For `Cc1ncsc1-c1ccc([C@H](C)NC(=O)[C@@H]2C[C@@H](O)CN2C(=O)[C@@H](NC(=O)CCCCCCCCCN2CCN(S(=O)(=O)c3ccc(NC(=O)NCc4cccnc4)cc3)CC2)C(C)(C)C)cc1`, the IC50 worked out at 10 nM with A2780 [1] and 190 nM in [2]. The result in data set [5] was Active. Moreover, the 50% degradation concentration (DC50) in [3] is 1.5 nM. In data set [6], the Activity entry is “Dose-Dependent Effect”.
On to `Cc1ncsc1-c1ccc([C@H](C)NC(=O)[C@@H]2C[C@@H](O)CN2C(=O)[C@@H](NC(=O)COCCOCCOCCOCCOCCN2CCN(S(=O)(=O)c3ccc(NC(=O)NCc4cccnc4)cc3)CC2)C(C)(C)C)cc1`, for which the figures for the IC50 (in the data set on A2780 [1]; in data set [2]) were 133 nM and 190 nM, respectively. Moreover, in [3], the DC50 worked out at 22 nM. Besides, the Activity entry in [4] is “Dose-Dependent Effect”.
